# Data as given in patent US8309685B2 (Celgene Avilomics Research, Inc., priority 2007, dated 2012).
# pEC50, pIC50: −log10 of the molar value. Where two headings read alike, the source gives them in different places.
# How the values were obtained:
# [1] = target: T1, wild type HCV NS3/4A 1b protease enzyme (Hepatitis C virus genotype 1b, UniProt P26663); assay: HCV Protease FRET Assay (IC50_APP), wild type; assay type: biochemical
# T1 construct: 10× stocks of NS3/4A protease enzyme from Bioenza (Mountain View, Calif.); purchased Bioenza (Mountain View, Calif.)
# Procedure: (§1) HCV Protease FRET Assay for WT and Mutated NS3/4A 1b Enzymes (IC50—APP).
# (§2) The following protocol was used to generate “apparent” IC50 (IC50—APP) values as depicted in Table 6, below. […] 5 μL of each enzyme were added to Corning (#3575) 384-well, black, microtiter plates (Corning, N.Y.) after spotting a 0.5 μL volume of 50% DMSO and serially diluted compounds prepared in 50% DMSO. Protease reactions were immediately started after enzyme addition with the addition of 45 μL of the FRET substrate and monitored for 60-90 minutes at λex485/λem520 in a Synergy^4 plate reader from BioTek (Winooski, Vt.). At the conclusion of each assay, progress curves from each well were examined for linear reaction kinetics and fit statistics (R^2, 95% confidence intervals, absolute sum of squares).
# (§3) The compound numbers correspond to the compound numbers in Table 3. […] ;
# [2] = target: T2, D168A mutant of the HCV NS3/4A 1b protease enzyme (Hepatitis C virus genotype 1b, UniProt P26663, D1194A); assay: HCV Protease FRET Assay (IC50_APP), D168A mutant; assay type: biochemical; conditions: apparent IC50, D168A mutant; read-out: IC50_APP, HCV D168A
# T2 construct: 10× stocks of NS3/4A protease enzyme from Bioenza (Mountain View, Calif.); purchased Bioenza (Mountain View, Calif.)
# Procedure: as §1, §2, §3
# [3] = target: T3, R155K mutant of the HCV NS3/4A 1b protease enzyme (Hepatitis C virus genotype 1b, UniProt P26663, R1181K); assay: HCV Protease FRET Assay (IC50_APP), R155K mutant; assay type: biochemical; conditions: apparent IC50, R155K mutant; read-out: IC50_APP, HCV R155K
# T3 construct: 10× stocks of NS3/4A protease enzyme from Bioenza (Mountain View, Calif.); purchased Bioenza (Mountain View, Calif.)
# Procedure: as §1, §2, §3
# [4] = tested on: HCV RNA replicon in cell line ET (luc-ubi-neo/ET), human Huh7 hepatoma; assay: Luciferase Assay (Example 35), replicon-derived luciferase activity; assay type: cell-based; conditions: Hepatitis C virus, Huh-7, assay described in Example 35
# Procedure: The compounds were assayed to evaluate the antiviral activity and cytotoxicity of compounds using replicon-derived luciferase activity. This assay used the cell line ET (luc-ubi-neo/ET), which is a human Huh7 hepatoma cell line that contains an HCV RNA replicon with a stable luciferase (Luc) reporter and cell culture-adaptive mutations. The ET cell line was grown in a 5% CO2 incubator at 37° C. in Dulbecco's modified essential media (DMEM) supplemented with 2 mM L-glutamine, nonessential amino acids, 100 U of penicillin/ml, 100 μg of streptomycin/mL, and 10% fetal bovine serum. G418 (Geneticin; Invitrogen) was added at a final concentration of 400 ug//mL.
# All cell culture reagents were obtained from Invitrogen (Carlsbad). Cells were trypsinized (1% trypsin:EDTA) and plated out at 5×10^3 cells/well in white 96-well assay plates (Costar) dedicated to cell number (cytotoxicity) or antiviral activity assessments. Test compounds were added at six 3-fold concentrations each and the assay was run in DMEM, 5% FBS, 1% pen-strep, 1% glutamine, 1% non essential amino acid. Human interferon alpha-2b (PBL Biolabs, New Brunswick, N.J.) was included in each run as a positive control compound. Cells were processed 72 hr post test compound addition when the cells were still subconfluent. Antiviral activity was measured by analyzing replicon-derived luciferase activity using the Steady-Glo Luciferase Assay System (Promega, Madison, Wis.) according to manufacturer's instruction. The number of cells in each well was determined by Cell Titer Blue Assay (Promega). Compound profile was derived by calculating applicable EC50 (effective concentration inhibiting virus replication by 50%), EC90 (effective concentration inhibiting virus replication by 90%), IC50 (concentration decreasing cell viability by 50%) and SI50 (selective index: […]) values.
# [5] = tested on: HCV RNA replicon in cell line ET (luc-ubi-neo/ET), human Huh7 hepatoma; assay: Method A: HCV RNA replicon antiviral assay (luciferase, ET cell line); assay type: cell-based, Hepatitis C virus; conditions: Hepatitis C virus, Huh-7, assay described in Example 22; for pIC50: read-out: Replicon (IC50)
# Procedure: The compounds were assayed to evaluate the antiviral activity and cytotoxicity of compounds in vitro using HCV RNA replicons. This assay used the cell line ET (luc-ubi-neo/ET), which is a human Huh7 hepatoma cell line that contains an HCV RNA replicon with a stable luciferase (Luc) reporter and three cell culture-adaptive mutations. […]
# The ET cell line was grown in Dulbecco's modified essential media (DMEM), 10% fetal bovine serum (FBS), 1% penicillin-streptomycin (pen-strep), 1% glutamine, 250 μg/ml G418 in a 5% CO2 incubator at 37° C. All cell culture reagents were obtained from Mediatech (Manassas, Va.). Cells were trypsinized (1% trypsin:EDTA) and plated out at 5×10^3 cells/well in white 96-well assay plates (Costar) dedicated to cell number (cytotoxicity) or antiviral activity assessments. Drugs were added at six 3-fold concentrations each and the assay was run in DMEM, 5% FBS, 1% pen-strep, 1% glutamine. Human interferon alpha-2b (PBL Biolabs, New Brunswick, N.J.) was included in each run as a positive control compound. Cells were processed 72 hr post drug addition when the cells are still subconfluent. Antiviral activity was measured by analyzing replicon-derived luciferase activity using the Steady-Glo Luciferase Assay System (Promega, Madison, Wis.) according to manufacturer's instruction. The number of cells in each well was determined by CytoTox-1 reagent (Promega). Compound profile was derived by calculating applicable EC50 (effective concentration inhibiting virus replication by 50%), EC90 (effective concentration inhibiting virus replication by 90%), IC50 (concentration decreasing cell viability by 50%) and SI50 (selective index: […]) values.
# [6] = target: T4, A156T mutant of the HCV NS3/4A 1b protease enzyme (Hepatitis C virus genotype 1b, UniProt P26663, A1182T); assay: HCV Protease FRET Assay (IC50_APP), A156T mutant; assay type: biochemical; conditions: apparent IC50, A156T mutant; read-out: IC50_APP, HCV A156T
# T4 construct: 10× stocks of NS3/4A protease enzyme from Bioenza (Mountain View, Calif.); purchased Bioenza (Mountain View, Calif.)
# Procedure: as §1, §2, §3
# [7] = read-out: IC50_APP, WT, apparent IC50, wild type NS3/4A 1b
SMILES,pIC50 [1],pIC50 [2],pIC50 [3],"pIC50 [1, 7]",EC90 [4] [nM],pEC50 [4],IC90 [5] [nM],pIC50 [5],pIC50 [6]
C=CC(=O)N(C)C[C@@H]1NC(=O)OCCC/C=C/c2ccc3ccnc(c3c2)O[C@@H]2C[C@@H](C(=O)N[C@]3(C(=O)NS(=O)(=O)C4CC4)C[C@H]3C=C)N(C2)C1=O [Compound I-83],7.00 to 8.00,5.00 to 6.00,5.00 to 6.00,–,–,–,–,–,–
"C=CC(=O)N(C)C[C@H](NC(=O)OC(C)(C)C)C(=O)N1C[C@H](Oc2nccc3ccccc23)C[C@H]1C(=O)N[C@]1(C(=O)NS(=O)(=O)C2CC2)C[C@H]1C=C [Compound I-98, {1-[(Acryloyl-methyl-amino)-methyl]-2-[2-(1-cyclopropanesulfonylaminocarbonyl-2-vinyl-cyclopropylcarbamoyl)-4-(isoquinolin-1-yloxy)-pyrrolidin-1-yl]-2-oxo-ethyl}-carbamic acid tert-butyl ester]",–,6.00 to 7.00,6.00 to 7.00,7.00 to 8.00,100 to 1000,7.00 to 8.00,–,–,–
C=C[C@@H]1C[C@]1(NC(=O)[C@@H]1C[C@@H](Oc2nccc3cc(OC)ccc23)CN1C(=O)[C@H](CCC(=O)/C=C/C)NC(=O)OC(C)(C)C)C(=O)NS(=O)(=O)C1CC1 [Compound I-139],–,> 8.00,> 8.00,> 8.00,–,7.00 to 8.00,–,–,–
"C=CC(=O)NC[C@H](NC(=O)OC(C)(C)C)C(=O)N1C[C@H](Oc2nccc3cc(OC)ccc23)C[C@H]1C(=O)N[C@]1(C(=O)NS(=O)(=O)C2CC2)C[C@H]1C=C [Compound I-92, {1-(Acryloylamino-methyl)-2-[2-(1-cyclopropanesulfonylaminocarbonyl-2-vinyl-cyclopropylcarbamoyl)-4-(6-methoxy-isoquinolin-1-yloxy)-pyrrolidin-1-yl]-2-oxo-ethyl}-carbamic acid tert-butyl ester]",–,6.00 to 7.00,7.00 to 8.00,> 8.00,100 to 1000,7.00 to 8.00,–,–,–
C=C[C@@H]1C[C@]1(NC(=O)[C@@H]1C[C@@H](Oc2nccc3cc(OC)ccc23)CN1C(=O)[C@@H](NC(=O)OC(C)(C)C)C(C)(C)C(=O)C=C(C)C)C(=O)NS(=O)(=O)C1CC1 [Compound I-134],–,6.00 to 7.00,7.00 to 8.00,> 8.00,–,–,–,–,–
C=C[C@@H]1C[C@]1(NC(=O)[C@@H]1C[C@@H](Oc2nccc3cc(OC)ccc23)CN1C(=O)[C@H](CCC(=O)/C=C/c1ccccc1)NC(=O)OC(C)(C)C)C(=O)NS(=O)(=O)C1CC1 [Compound I-137],–,5.00 to 6.00,5.00 to 6.00,7.00 to 8.00,–,–,–,–,–
CC[C@@H]1C[C@]1(NC(=O)[C@@H]1C[C@@H](Oc2nccc3cc(OC)ccc23)CN1C(=O)[C@H](CCC(=O)C=C(C)C)NC(=O)OC(C)(C)C)C(=O)NS(=O)(=O)C1CC1 [Compound I-114],–,–,6.00 to 7.00,> 8.00,–,7.00 to 8.00,–,–,–
"C=CC(=O)NC[C@H](NC(=O)OC1CCCC1)C(=O)N1C[C@H](Oc2nccc3ccc(-c4cccs4)cc23)C[C@H]1C(=O)N[C@]1(C(=O)NS(=O)(=O)C2CC2)C[C@H]1C=C [Compound I-88, Cyclopentyl-(S)-3-acrylamido-1-((2S,4R)-2-((1R,2S)-1-(cyclopropylsulfonylcarbamoyl)-2-vinylcyclopropylcarbamoyl)-4-(7-(thiophen-2-yl)isoquinolin-1-yloxy)pyrrolidin-1-yl)-1-oxopropan-2-ylcarbamate]",> 8.00,6.00 to 7.00,5.00 to 6.00,–,–,–,10 to 100,> 8.00,–
C=C[C@@H]1C[C@]1(NC(=O)[C@@H]1C[C@@H](Oc2nccc3cc(OC)ccc23)CN1C(=O)[C@H](CCC(=O)/C=C/C(C)(C)C)NC(=O)OC(C)(C)C)C(=O)NS(=O)(=O)C1CC1 [Compound I-143],–,5.00 to 6.00,6.00 to 7.00,> 8.00,–,–,–,–,–
C=CC(=O)NC[C@H](NC(=O)CCCC(=O)NCCCOCCOCCOCCCNC(=O)CCCC[C@@H]1SC[C@@H]2NC(=O)N[C@@H]21)C(=O)N1C[C@H](Oc2nccc3cc(OC)ccc23)C[C@H]1C(=O)N[C@]1(C(=O)NS(=O)(=O)C2CC2)C[C@H]1C=C [Compound I-104],–,7.00 to 8.00,7.00 to 8.00,> 8.00,–,–,–,–,–
"C=CC(=O)NC[C@H](NC(=O)CCCC[C@H]1SC[C@H]2NC(=O)N[C@H]21)C(=O)N1C[C@H](Oc2nccc3cc(OC)ccc23)C[C@H]1C(=O)N[C@]1(C(=O)NS(=O)(=O)C2CC2)C[C@H]1C=C [Compound I-103, 1-{3-Acryloylamino-2-[5-(2-oxo-hexahydro-thieno[3,4-d]imidazol-6-yl)-pentanoylamino]-propionyl}-4-(6-methoxy-isoquinolin-1-yloxy)-pyrrolidine-2-carboxylic acid (1-cyclopropanesulfonylaminocarbonyl-2-vinyl-cyclopropyl)-amide]",–,7.00 to 8.00,6.00 to 7.00,7.00 to 8.00,–,–,–,–,–
"C=CC(=O)NC[C@@H]1NC(=O)OCCC/C=C/c2ccc3ccnc(c3c2)O[C@@H]2C[C@@H](C(=O)N[C@]3(C(=O)NS(=O)(=O)C4CC4)C[C@H]3C=C)N(C2)C1=O [Compound I-77, (1R,2S)-N-1-cyclopropylsulfonylcarboxamido-2-vinylcyclopropyl (2R,4S,7S,14E)-7-acrylamidomethyl-2H-16,18-etheno-2,5-methano-11H-pyrido[2,3-k][1,10,3,6]dioxadiazacyclononadecine-4-ylcarboxamide]",> 8.00,6.00 to 7.00,7.00 to 8.00,–,–,–,10 to 100,> 8.00,6.00 to 7.00
C=CC(=O)N[C@@H](C(=O)N1C[C@H](Oc2nccc3cc(OC)ccc23)C[C@H]1C(=O)N[C@]1(C(=O)NS(=O)(=O)C2CC2)C[C@H]1C=C)C(C)(C)O [Compound I-130],–,6.00 to 7.00,–,7.00 to 8.00,–,6.00 to 7.00,–,–,–
[2H]C([2H])([2H])C(=CC(=O)CC[C@H](NC(=O)OC(C)(C)C)C(=O)N1C[C@H](Oc2nccc3cc(OC)ccc23)C[C@H]1C(=O)N[C@]1(C(=O)NS(=O)(=O)C2CC2)C[C@H]1C=C)C([2H])([2H])[2H] [Compound I-142],–,6.00 to 7.00,7.00 to 8.00,> 8.00,–,–,–,–,–
C=C[C@@H]1C[C@]1(NC(=O)[C@@H]1C[C@@H](Oc2nccc3cc(OC)ccc23)CN1C(=O)[C@H](CC(=O)/C(C)=C/C)NC(=O)OC(C)(C)C)C(=O)NS(=O)(=O)C1CC1 [Compound I-133],–,6.00 to 7.00,7.00 to 8.00,> 8.00,–,–,–,–,–
